In BindingDB's records for doi:10.7270/Q28G8J4C (Broad Institute, 2009):
pEC50: −log10 of the molar value.

Biological target: T1, POsterior Segregation (Caenorhabditis elegans, UniProt G5EF15)
T1 sequence (G5EF15 whole entry): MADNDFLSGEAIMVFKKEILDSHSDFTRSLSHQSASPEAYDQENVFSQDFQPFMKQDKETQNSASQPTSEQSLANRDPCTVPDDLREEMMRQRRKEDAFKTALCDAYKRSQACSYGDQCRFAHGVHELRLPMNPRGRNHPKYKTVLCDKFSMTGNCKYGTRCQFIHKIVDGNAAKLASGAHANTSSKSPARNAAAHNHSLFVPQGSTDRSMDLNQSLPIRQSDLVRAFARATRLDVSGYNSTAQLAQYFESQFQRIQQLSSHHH
Test: inhibitors of POS-1/mex-3 RNA binding, dose response, biochemical, fluorescence polarization (AID 1964)

COc1ccc(C2C(C(=O)c3cccs3)C(=O)C(=O)N2c2nncs2)cc1 (configuration not stated)
pEC50: 6.26

O=C(O)c1ccc(S(=O)(=O)N=C2C=C(Nc3ccccc3F)C(=O)c3ccccc32)cc1
pEC50: 3.93

COc1ccc(C2C(C(C)=O)=C(C)N=c3sc(=Cc4cc(C)n(C)c4C)c(=O)n32)c(OC)c1 (configuration not stated)
pEC50: 4.96

N#CC1C(=N)OC2=C(C(=O)CC(c3ccccc3)C2)C1c1ccc2c(c1)OCO2 (configuration not stated)
pEC50: < 3.52

Clc1ccc(C2=Nc3ncnn3C(c3ccco3)C2)cc1 (configuration not stated)
pEC50: 4.61

Brc1ccc(C2=Nc3ncnn3C(c3ccco3)C2)cc1 (configuration not stated)
pEC50: < 3.52

CS(=O)(=O)Nc1nc2n(n1)C(c1ccccc1)CC(c1ccc(Br)cc1)=N2 (configuration not stated)
pEC50: < 3.52

COc1ccccc1-n1c(O)c2n(-c3ccc(C)cc3)[nH]c(C(=O)c3ccccc3)c-2c1=O
pEC50: 4.86

COc1cc(C2c3c(-c4cccnc4)n[nH]c3OC(=N)C2C#N)cc(Br)c1O (configuration not stated)
pEC50: < 3.52

O=C1N=c2ccccc2=C1NNc1ccc(F)cc1
pEC50: < 3.52

c1ccc(CN=Nc2nc3ccccc3[nH]2)nc1
pEC50: 4.14

Cc1c(C(=O)NN=Cc2ccco2)[nH][nH]c1=O
pEC50: < 3.52

COC1=CC([N+](=O)[O-])=CC(/C=N/NC(=O)CC#N)C1=O (configuration not stated)
pEC50: < 3.52

Cc1ccc(Cl)c2c1NC(=O)/C2=C1/NC(=S)NC1=O
pEC50: 4.84

Cc1c(C(=O)O)cccc1-n1c(C)cc(CN=Nc2ccc([N+](=O)[O-])cn2)c1C
pEC50: < 3.52

COc1ccc(OC)c(NC=C2C(=O)NC(=S)N(Cc3ccccc3)C2=O)c1
pEC50: < 3.52

C[C@H]1c2cccc(O)c2C(=O)C2C(=O)[C@]3(O)C(=O)C(C(N)=O)C(=O)[C@@H](N(C)C)[C@@H]3[C@@H](O)[C@@H]21 (some centres not stated)
pEC50: < 3.52

COc1cc(C2C3=C(CC(C)(C)CC3=O)OC(=N)C2C#N)cc2c1OCO2 (configuration not stated)
pEC50: < 3.52

O=C(NN=Cc1c(O)ccc2ccccc12)Nc1ccccc1
pEC50: 3.98

N#CC1C(=N)OC2=C(C(=O)CCC2)C1c1ccc2c(c1)OCO2 (configuration not stated)
pEC50: < 3.52

Cc1ccc(Cl)c2c1=NC(=O)C=2NNc1ccccc1
pEC50: 4.73

COc1cc(C2C3=C(CCCC3=O)OC(=N)C2C#N)cc2c1OCO2 (configuration not stated)
pEC50: < 3.52

Cc1ccc2c(c1)=C(NNc1ccccc1C)C(=O)N=2
pEC50: < 3.52

O=C1NC(=O)N(c2cccc(F)c2)C(=O)C1=Cc1c[nH]c2ccccc12
pEC50: < 3.52

COc1ccccc1OCC(=O)NN=Cc1c(O)ccc2ccccc12
pEC50: 3.64

Oc1ccc(CN=Nc2ccc(Cl)nn2)c(O)c1O
pEC50: 4.30

N#CCC(=N)C(C#N)C#N [1,1,3-tricyano-2-amino-1-propene]
pEC50: 4.26

O=C(NN=CC1=CC(=O)C(=O)CC1)NN=CC1=CC(=O)C(=O)CC1 [1,3-bis[[(Z)-(3-hydroxy-4-oxocyclohexa-2,5-dien-1-ylidene)methyl]amino]urea]
pEC50: 4.79

CCN(CC)CCN1C(=O)C(=O)C(C(=O)c2cc3cccc(OC)c3o2)C1c1ccc(F)cc1 (configuration not stated) [1-(2-Diethylamino-ethyl)-5-(4-fluoro-phenyl)-3-hydroxy-4-(7-methoxy-benzofuran-2-carbonyl)-1,5-dihydr o-pyrrol-2-one]
pEC50: < 3.52

C=CCOc1cccc(C2C(C(=O)c3ccco3)C(=O)C(=O)N2Cc2ccco2)c1 (configuration not stated) [1-(2-furanylmethyl)-3-[2-furanyl(oxo)methyl]-4-hydroxy-2-(3-prop-2-enoxyphenyl)-2H-pyrrol-5-one]
pEC50: < 3.52

O=C1Nc2ccccc2/C1=N/NC(=S)Nc1ccc(O)cc1 [1-(4-hydroxyphenyl)-3-[(2-oxidanylideneindol-3-yl)amino]thiourea]
pEC50: 4.79

C=CCOc1ccc(C2C(C(=O)c3cccs3)C(=O)C(=O)N2c2nnc(C)s2)cc1 (configuration not stated) [1-(5-methyl-1,3,4-thiadiazol-2-yl)-4-oxidanyl-2-(4-prop-2-enoxyphenyl)-3-thiophen-2-ylcarbonyl-2H-pyrrol-5-one]
pEC50: 4.97

COc1ccc(NC=C2C(=O)NC(=S)N(Cc3ccccc3)C2=O)c(OC)c1 [1-Benzyl-5-[1-(2,4-dimethoxy-phenylamino)-meth-(Z)-ylidene]-2-thioxo-dihydro-pyrimidine-4,6-dione]
pEC50: < 3.52

CSc1nncc(C(C)N=Nc2ccccc2)n1 (configuration not stated) [1-[3-(methylsulfanyl)-1,2,4-triazin-5-yl]ethanone phenylhydrazone]
pEC50: 4.38

C=CCSc1nnc(N2C(=O)C(=O)C(C(=O)c3ccco3)C2c2ccccc2F)s1 (configuration not stated) [1-[5-(allylthio)-1,3,4-thiadiazol-2-yl]-5-(2-fluorophenyl)-4-(2-furoyl)-3-hydroxy-3-pyrrolin-2-one]
pEC50: 4.32

C=CCSc1nnc(N2C(=O)C(=O)C(C(=O)c3ccco3)C2c2ccc(F)cc2)s1 (configuration not stated) [1-[5-(allylthio)-1,3,4-thiadiazol-2-yl]-5-(4-fluorophenyl)-4-(2-furoyl)-3-hydroxy-3-pyrrolin-2-one]
pEC50: 3.94

CC(C)c1ccc(C2C(C#N)=C3Sc4ccccc4N3C(=N)C2C#N)cc1 (configuration not stated) [1-amino-3-(4-propan-2-ylphenyl)-3H-pyrido[2,1-b][1,3]benzothiazole-2,4-dicarbonitrile]
pEC50: 4.48

CC1(C)CC(=O)C2Sc3ccccc3N=C2C1 (configuration not stated) [2,2-Dimethyl-2,3-dihydro-1H,10H-phenothiazin-4-one]
pEC50: 4.36

Oc1c(Br)cc(Br)c(C=Nn2c(-c3ccccc3)n[nH]c2=S)c1Br [2,4,6-Tribromo-3-[(3-mercapto-5-phenyl-[1,2,4]triazol-4-ylimino)-methyl]-phenol]
pEC50: 5.07

COc1cccc(C2C(C(=O)c3cc4cccc(OC)c4o3)C(=O)C(=O)N2c2cc(C)on2)c1OC (configuration not stated) [2-(2,3-dimethoxyphenyl)-3-[(7-methoxy-1-benzofuran-2-yl)carbonyl]-1-(5-methyl-1,2-oxazol-3-yl)-4-oxidanyl-2H-pyrrol-5-one]
pEC50: < 3.52

COc1ccc(OC)c(C2C(C(=O)c3ccco3)C(=O)C(=O)N2CCN2CCOCC2)c1 (configuration not stated) [2-(2,5-dimethoxyphenyl)-3-(furan-2-carbonyl)-4-hydroxy-1-(2-morpholin-4-ylethyl)-2H-pyrrol-5-one]
pEC50: < 3.52

COc1cccc(C2C3=C(CCCC3=O)OC(=N)C2C#N)c1OC(=O)c1ccco1 (configuration not stated) [2-(2-amino-3-cyano-5-oxo-5,6,7,8-tetrahydro-4H-chromen-4-yl)-6-methoxyphenyl 2-furoate]
pEC50: < 3.52

CC1(C)CC(=O)C2=C(C1)OC(=N)C(C#N)C2c1ccccc1OC(=O)N1CCOCC1 (configuration not stated) [2-(2-amino-3-cyano-7,7-dimethyl-5-oxo-5,6,7,8-tetrahydro-4H-chromen-4-yl)phenyl morpholine-4-carboxylate]
pEC50: < 3.52

CCCSc1nnc(N2C(=O)C(=O)C(C(=O)c3ccco3)C2c2ccccc2F)s1 (configuration not stated) [2-(2-fluorophenyl)-3-(furan-2-carbonyl)-4-hydroxy-1-(5-propylsulfanyl-1,3,4-thiadiazol-2-yl)-2H-pyrrol-5-one]
pEC50: < 3.52

COc1ccc(C2C(C(=O)c3cccs3)C(=O)C(=O)N2c2nnc(C)s2)cc1OC (configuration not stated) [2-(3,4-dimethoxyphenyl)-1-(5-methyl-1,3,4-thiadiazol-2-yl)-4-oxidanyl-3-thiophen-2-ylcarbonyl-2H-pyrrol-5-one]
pEC50: 5.14

COc1ccc(C2C(C(=O)c3ccco3)C(=O)C(=O)N2c2nnc(C)s2)cc1OC (configuration not stated) [2-(3,4-dimethoxyphenyl)-3-(furan-2-carbonyl)-4-hydroxy-1-(5-methyl-1,3,4-thiadiazol-2-yl)-2H-pyrrol-5-one]
pEC50: < 3.52

Cc1ccc(C(=O)C2C(=O)C(=O)N(Cc3ccco3)C2c2cccc(Br)c2)o1 (configuration not stated) [2-(3-bromophenyl)-1-(2-furanylmethyl)-4-hydroxy-3-[(5-methyl-2-furanyl)-oxomethyl]-2H-pyrrol-5-one]
pEC50: < 3.52

CCCCOc1cccc(C2C(C(=O)c3ccc(C)o3)C(=O)C(=O)N2c2nnc(C)s2)c1 (configuration not stated) [2-(3-butoxyphenyl)-3-(5-methylfuran-2-yl)carbonyl-1-(5-methyl-1,3,4-thiadiazol-2-yl)-4-oxidanyl-2H-pyrrol-5-one]
pEC50: 3.99

CSc1nnc(N2C(=O)C(=O)C(C(=O)c3ccco3)C2c2cccc(Cl)c2)s1 (configuration not stated) [2-(3-chlorophenyl)-3-(furan-2-carbonyl)-4-hydroxy-1-(5-methylsulfanyl-1,3,4-thiadiazol-2-yl)-2H-pyrrol-5-one]
pEC50: 4.50

CCOc1cccc(C2C(C(=O)c3ccc(C)o3)C(=O)C(=O)N2c2nccs2)c1 (configuration not stated) [2-(3-ethoxyphenyl)-3-(5-methylfuran-2-yl)carbonyl-4-oxidanyl-1-(1,3-thiazol-2-yl)-2H-pyrrol-5-one]
pEC50: 5.85

Cc1cccc(Nc2nc(O)cs2)c1 [2-(3-methylanilino)-1,3-thiazol-4-one]
pEC50: < 3.52

Cc1nnc(N2C(=O)C(=O)C(C(=O)c3ccco3)C2c2ccc(F)cc2)s1 (configuration not stated) [2-(4-fluorophenyl)-3-(furan-2-carbonyl)-4-hydroxy-1-(5-methyl-1,3,4-thiadiazol-2-yl)-2H-pyrrol-5-one]
pEC50: 4.47

CSc1nnc(N2C(=O)C(=O)C(C(=O)c3ccco3)C2c2ccc(F)cc2)s1 (configuration not stated) [2-(4-fluorophenyl)-3-(furan-2-carbonyl)-4-hydroxy-1-(5-methylsulfanyl-1,3,4-thiadiazol-2-yl)-2H-pyrrol-5-one]
pEC50: 3.82

Cc1[nH]c2ccccc2c1/C=C1\N=C(c2ccc(F)cc2)OC1=O [2-(4-fluorophenyl)-4-[(2-methyl-1H-indol-3-yl)methylene]-1,3-oxazol-5(4H)-one]
pEC50: < 3.52

O=C1c2cccc([N+](=O)[O-])c2C(=O)N1n1c(O)csc1=S [2-(4-keto-2-thioxo-thiazolidin-3-yl)-4-nitro-isoindoline-1,3-quinone]
pEC50: 4.60

Cc1nnc(N2C(=O)C(=O)C(C(=O)c3ccco3)C2c2ccc(C(C)(C)C)cc2)s1 (configuration not stated) [2-(4-tert-butylphenyl)-3-(furan-2-carbonyl)-4-hydroxy-1-(5-methyl-1,3,4-thiadiazol-2-yl)-2H-pyrrol-5-one]
pEC50: 4.60

COc1ccc(C2C3=C(CCCC3=O)OC(=N)C2C#N)c(OC)c1OC (configuration not stated) [2-Amino-5-oxo-4-(2,3,4-trimethoxy-phenyl)-5,6,7,8-tetrahydro-4H-chromene-3-carbonitrile]
pEC50: < 3.52
